# Calls of active or inactive are those of the source. The rule behind the calls is not given here.
# What was measured:
# [1] = biological target: Mitogen-activated protein kinase 3 (Homo sapiens) (UniProt P27361); test: Binding affinity to ERK1 (unknown origin) expressed in Escherichia coli by STD NMR spectrometric analysis
# [2] = biological target: T1, Glycogen phosphorylase, muscle form (Oryctolagus cuniculus) (UniProt P00489); test: Binding affinity to rabbit muscle glycogen phosphorylase by STD NMR spectrometric analysis
# T1 sequence (whole entry): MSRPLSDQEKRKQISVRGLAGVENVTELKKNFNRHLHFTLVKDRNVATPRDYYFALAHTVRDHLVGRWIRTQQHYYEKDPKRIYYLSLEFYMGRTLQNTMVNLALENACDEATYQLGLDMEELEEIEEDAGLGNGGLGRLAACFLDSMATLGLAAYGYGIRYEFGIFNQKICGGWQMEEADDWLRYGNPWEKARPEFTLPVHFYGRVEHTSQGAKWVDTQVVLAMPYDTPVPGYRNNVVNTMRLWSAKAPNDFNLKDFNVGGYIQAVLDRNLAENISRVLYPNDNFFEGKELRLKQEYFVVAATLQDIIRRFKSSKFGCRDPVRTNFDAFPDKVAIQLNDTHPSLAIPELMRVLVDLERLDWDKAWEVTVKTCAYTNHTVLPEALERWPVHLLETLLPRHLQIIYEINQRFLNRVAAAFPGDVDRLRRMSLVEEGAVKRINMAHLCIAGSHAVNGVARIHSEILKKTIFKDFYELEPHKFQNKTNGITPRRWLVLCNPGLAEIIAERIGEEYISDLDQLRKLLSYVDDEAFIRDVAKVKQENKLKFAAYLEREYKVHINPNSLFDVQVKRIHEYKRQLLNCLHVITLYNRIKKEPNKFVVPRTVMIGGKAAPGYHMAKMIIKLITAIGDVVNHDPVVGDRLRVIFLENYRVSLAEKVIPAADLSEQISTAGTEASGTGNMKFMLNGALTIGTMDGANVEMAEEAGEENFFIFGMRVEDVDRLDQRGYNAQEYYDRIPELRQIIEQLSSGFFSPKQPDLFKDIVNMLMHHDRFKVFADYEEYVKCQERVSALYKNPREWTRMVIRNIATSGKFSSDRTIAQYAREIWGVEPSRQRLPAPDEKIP
# [3] = biological target: T2, Peroxiredoxin-5, mitochondrial (Homo sapiens) (UniProt P30044); test: Binding affinity to human PRDX5 expressed in Escherichia coli at ligand/protein ratio 120 measured over 0.5 to 4 secs by STD NMR spectrometric analysis
# T2 sequence (whole entry): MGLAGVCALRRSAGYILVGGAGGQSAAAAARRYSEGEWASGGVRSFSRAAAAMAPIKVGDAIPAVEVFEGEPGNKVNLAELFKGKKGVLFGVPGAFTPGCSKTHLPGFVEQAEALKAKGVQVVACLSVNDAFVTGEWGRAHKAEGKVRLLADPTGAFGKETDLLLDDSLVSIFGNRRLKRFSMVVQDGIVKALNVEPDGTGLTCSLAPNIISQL
# [4] = biological target: T2, Peroxiredoxin-5, mitochondrial (Homo sapiens); test: Binding affinity to human PRDX5 expressed in Escherichia coli at ligand/protein ratio 50 and 240 measured over 2 secs by STD NMR spectrometric analysis
# [5] = biological target: T1, Glycogen phosphorylase, muscle form (Oryctolagus cuniculus); test: Binding affinity to rabbit muscle glycogen phosphorylase measured for 0.5 to 4 secs by STD NMR spectrometric analysis
# [6] = biological target: T2, Peroxiredoxin-5, mitochondrial (Homo sapiens); test: Binding affinity to human PRDX5 expressed in Escherichia coli by STD NMR spectrometric analysis
# Sequence of Mitogen-activated protein kinase 3 (Homo sapiens) (P27361 whole entry): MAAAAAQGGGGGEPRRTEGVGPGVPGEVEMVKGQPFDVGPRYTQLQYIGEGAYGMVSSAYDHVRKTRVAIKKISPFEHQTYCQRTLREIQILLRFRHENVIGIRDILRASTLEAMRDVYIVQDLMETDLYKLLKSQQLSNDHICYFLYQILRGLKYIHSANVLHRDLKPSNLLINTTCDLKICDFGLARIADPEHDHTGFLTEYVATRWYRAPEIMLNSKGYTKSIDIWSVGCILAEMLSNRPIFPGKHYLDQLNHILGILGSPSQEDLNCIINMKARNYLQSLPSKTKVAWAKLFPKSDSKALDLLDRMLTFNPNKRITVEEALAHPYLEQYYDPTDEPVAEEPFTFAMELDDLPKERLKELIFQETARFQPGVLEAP
smiles,measurement,setting,value
c1cnc2[nH]ccc2c1,Activity,[1],Active
same,Activity,[2],Active
O=C(O)c1cnc2ccccc2c1,Activity,[2],Active
Cc1ccc(O)c(O)c1,Activity,[3],Active
same,Activity,[4],Active
Nc1nc2ncnc-2c[nH]1,Activity,[2],Active
c1ccc2[nH]ccc2c1,Activity,[5],Active
Oc1ccccc1-c1ccccc1,Activity,[2],Active
Oc1ccccc1Cc1ccccc1O,Activity,[6],Active

# Reference: ChEMBL document CHEMBL3627662, “Ligand-Orientation Based Fragment Selection in STD NMR Screening” (J Med Chem, 2015)
